The results in this text go back to ChEMBL document CHEMBL5537161, “Structure-Guided Design, Synthesis, and Antivirulence Assessment of Covalent Staphylococcus aureus Sortase A Inhibitors” (J Med Chem, 2024).

Series [1] deals with Staphylococcus aureus. Nature of the series: Antibacterial activity against Staphylococcus aureus Newman infected in Galleria mellonella assessed as reduction in melanization at 200 uM pretreated with compound followed by larvae infection measured after 24 hrs. The class given is functional, organism-based.
Series [2] relates to Staphylococcus aureus. Briefly: Inhibition of Staphylococcus aureus USA300 biofilm formation incubated for 14 hrs by Crystal violet staining based assay. The class given is functional, organism-based. As to conditions: dose 12.5-100 µM.
In series [3] the test system is Staphylococcus aureus. Nature of the series: Antivirulence activity against Staphylococcus aureus Newman assessed as reduction in abundance of Sbi at 6.25 to 100 uM by Western blotting analysis. The settings on record: dose 6.25-100 µM. The class given is functional, organism-based.
The target in series [4] is T1, Procathepsin L (Homo sapiens, UniProt P07711). Briefly: Inhibition of cathepsin L (unknown origin) at 2 uM using Cbz-Phe-Arg-AMC as substrate preincubated for 5 mins followed by substrate addition by fluorescence based assay.
Target sequence in this assay (P07711 114-333 limits assumed): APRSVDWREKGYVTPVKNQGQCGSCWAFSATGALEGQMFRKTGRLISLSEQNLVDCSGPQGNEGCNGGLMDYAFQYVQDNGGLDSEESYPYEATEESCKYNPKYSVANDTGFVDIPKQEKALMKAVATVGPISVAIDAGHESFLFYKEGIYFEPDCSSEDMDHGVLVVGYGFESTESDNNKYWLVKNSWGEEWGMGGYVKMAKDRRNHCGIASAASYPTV
The target in series [5] is T2, Sortase A (Staphylococcus aureus, UniProt Q9S446, N24DEL). Briefly: Inhibition of Staphylococcus aureus Sortase A N24 deletion mutant transpeptidation using IsdA64-323 as substrate preincubated for 20 mins followed by substrate addition and measured after 1.5 hrs by SDS-PAGE analysis.
In series [6] the test system is Sortase A (Staphylococcus aureus), Q9S446 [UNDEFINED MUTATION]. Briefly: Irreversible inhibition of Staphylococcus aureus sortase A N24 deletion mutant preincubated with compound for 1 to 60 mins followed by substrate addition by FRET based assay. As to conditions: time 1-60 min, TDE = time-dependent effect.
The test system of series [7] is Staphylococcus aureus. Briefly: Antibacterial activity against Staphylococcus aureus Newman infected in Galleria mellonella assessed as increase in larvae survival at 30 mg/kg measured every 24 hrs for 5 days. As to conditions: time 5 day. The class given is functional.
Series [8] relates to Streptococcus pyogenes. Briefly: Irreversible inhibition of Streptococcus pyogenes Sortase A N81 deletion mutant preincubated with compound for 1 to 60 mins followed by substrate addition by FRET based assay. As to conditions: time 1-60 min, TDE = time-dependent effect.
For series [9], the system named is Streptococcus pyogenes. Briefly: Inhibition of Streptococcus pyogenes Sortase A N81 deletion mutant transpeptidation assessed as thermal stabilization by measuring change in melting temperature at 80 uM incubated for 15 mins by Nano-DSF assay.
Series [10] deals with Sortase A (Staphylococcus aureus), Q9S446 [UNDEFINED MUTATION]. Briefly: Inhibition of Staphylococcus aureus Sortase A N24 deletion mutant transpeptidation assessed as thermal stabilization by measuring change in melting temperature at 80 uM incubated for 15 mins by Nano-DSF assay.
Series [11] has as its target T3, Cathepsin B (Homo sapiens, UniProt P07858). Nature of the series: Inhibition of cathepsin B (unknown origin) at 2 uM using Cbz-Phe-Arg-AMC as substrate preincubated for 5 mins followed by substrate addition by fluorescence based assay.
Series [12] is described as follows: Toxicity in Galleria mellonella larvae assessed as effect on survival at 60 mg/kg measured after 120 hrs. The class given is organism-based. As to conditions: in vivo.
In series [13] the test system is Staphylococcus aureus. Nature of the series: Inhibition of Staphylococcus aureus Newman biofilm formation incubated for 14 hrs by Crystal violet staining based assay. As to conditions: dose 12.5-100 µM. The class given is functional, organism-based.
Series [14] is described as follows: Inhibition of Streptococcus pyogenes Sortase A N81 deletion mutant transpeptidation using IsdA64-323 as substrate preincubated for 20 mins followed by substrate addition and measured after 1.5 hrs by SDS-PAGE analysis.
Series [15] relates to Staphylococcus aureus. Nature of the series: Bactericidal activity against Staphylococcus aureus Newman assessed as reduction in bacterial growth incubated for 16 to 18 hrs. The class given is functional. As to conditions: time 16-18 hrs.
Series [16] deals with T2, Sortase A. Nature of the series: Inhibition of Staphylococcus aureus sortase A N24 deletion mutant using Abz-LPATG-Dnp as substrate preincubated for 20 mins followed by substrate addition by FRET assay.
Series [17] concerns Staphylococcus aureus. Nature of the series: Antibacterial activity against Staphylococcus aureus USA300 assessed as reduction in bacterial growth at 100 uM incubated for 14 hrs by microplate reader assay. The class given is functional, organism-based.
For series [18], the system named is Staphylococcus aureus. Nature of the series: Antivirulence activity against Staphylococcus aureus Newman assessed as reduction in abundance of anchored SpA in bacterial envelope by Western blotting analysis. The class given is functional, organism-based. The settings on record: dose 6.25-100 µM.
In series [19] the test system is Staphylococcus aureus. Briefly: Antibacterial activity against Staphylococcus aureus Newman assessed as reduction in bacterial growth at 100 uM incubated for 14 hrs by microplate reader assay. The class given is functional, organism-based.
Series [20] can be described thus: Toxicity in Galleria mellonella assessed as change in color at 60 mg/kg measured after 120 hrs. The class given is organism-based. As to conditions: in vivo.
Series [21] relates to Staphylococcus aureus. Briefly: Antibacterial activity against Staphylococcus aureus USA300 infected in Galleria mellonella assessed as increase in larvae survival at 30 mg/kg measured every 24 hrs for 5 days. The class given is functional. The settings on record: time 5 day.
Series [22] relates to Staphylococcus aureus. Nature of the series: Antibacterial activity against Staphylococcus aureus USA300 infected in Galleria mellonella assessed as reduction in melanization at 200 uM pretreated with compound followed by larvae infection measured after 24 hrs. The class given is functional, organism-based.
The nature of series [23]: Toxicity in Galleria mellonella larvae assessed as change in appearance at 60 mg/kg measured after 120 hrs. The settings on record: in vivo. The class given is organism-based.
For series [24], the system named is Sortase A (Staphylococcus aureus), Q9S446 [UNDEFINED MUTATION]. Nature of the series: Covalent inhibition of Staphylococcus aureus sortase A N24 deletion mutant assessed as inactivation rate constant incubated for 60 mins.
The subject of series [25] is Streptococcus pyogenes. Nature of the series: Covalent inhibition of Streptococcus pyogenes Sortase A N81 deletion mutant assessed as inactivation rate constant incubated for 60 mins.
For series [26], the system named is Sortase A (Staphylococcus aureus), Q9S446 [UNDEFINED MUTATION]. Briefly: Covalent inhibition of Staphylococcus aureus sortase A N24 deletion mutant assessed as ratio of Kinact to Ki incubated for 60 mins.
In series [27] the target is T2, Sortase A. Nature of the series: Covalent inhibition of Staphylococcus aureus sortase A N24 deletion mutant assessed as inactivation constant incubated for 60 mins.
Series [28] addresses T1, Procathepsin L. Nature of the series: Inhibition of cathepsin L (unknown origin) using Cbz-Phe-Arg-AMC as substrate preincubated for 5 mins followed by substrate addition by fluorescence based assay.
Target sequence in this assay (P07711 whole entry): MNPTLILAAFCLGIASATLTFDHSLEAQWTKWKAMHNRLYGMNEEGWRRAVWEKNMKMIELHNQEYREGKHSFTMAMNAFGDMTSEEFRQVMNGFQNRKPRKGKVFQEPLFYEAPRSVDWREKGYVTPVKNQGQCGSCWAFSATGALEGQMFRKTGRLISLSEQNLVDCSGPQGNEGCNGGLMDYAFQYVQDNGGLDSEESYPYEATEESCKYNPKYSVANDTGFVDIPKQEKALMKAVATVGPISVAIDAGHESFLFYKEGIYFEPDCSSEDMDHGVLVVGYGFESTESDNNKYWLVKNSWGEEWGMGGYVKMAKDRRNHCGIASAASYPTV
A short description of series [29]: Covalent inhibition of Streptococcus pyogenes Sortase A N81 deletion mutant assessed as inactivation constant incubated for 60 mins.
The test system of series [30] is Streptococcus pyogenes. Nature of the series: Covalent inhibition of Streptococcus pyogenes Sortase A N81 deletion mutant assessed as ratio of Kinact to Ki incubated for 60 mins.
Series [31] deals with T3, Cathepsin B. Briefly: Inhibition of cathepsin B (unknown origin) using Cbz-Phe-Arg-AMC as substrate preincubated for 5 mins followed by substrate addition by fluorescence based assay.

≈ marks a conversion by molar mass, not a printed value. Calls of active or inactive are those of the source. The rule behind the calls is not given here.

`COc1ccc(/C=C/C=C2C(=O)NC(=O)NC2=O)cc1`: the result in series [1], in series [3], in series [18] and in series [22] was Active. In addition, the inhibition entry in [2] was “Dose-Dependent Effect”; in series [6], “Tde”; in series [8], “Tde”; in series [13], “Dose-Dependent Effect”. For the same compound, the inhibition entry in series [4] and in series [11] was “Active” each time. The IC50 in series [5] came out at 7400 nM; in series [14] it was 3400 nM; in [16], 1000 nM. The Activity in series [7] is on record as <40%; in [12], “Non-Toxic”; in [20], “Non-Toxic”; in series [21] it was 40%; in series [23], “Non-Toxic”. Besides, the ΔTm in series [9] is 9.3 °C; in series [10], 4.5 °C. In addition, the MIC in series [15] is > 128 µg/mL. The outcome in series [17] and in series [19] was inactive.
On to `O=C1NC(=O)C(=C/C=C/c2ccc(Br)cc2)C(=O)N1`, for which the figures for the IC50 in [5] and in [16] were 9000 nM and 700 nM, respectively. The MIC in series [15] worked out at 64 µg/mL (≈ 199 µM).
The like results for `O=C1NC(=O)C(=C/C=C/c2ccc(F)cc2)C(=O)N1` were, in that order, 7400 nM, 1300 nM and > 128 µg/mL.
As to `O=C1NC(=O)C(=C/C=C/c2ccc(OCc3ccc(F)cc3)cc2)C(=O)N1`, the result in series [1], in [3], in series [18] and in [22] was Active. For the same compound, the Kinact in series [24] amounted to 130 min⁻¹; in series [25], 1170 min⁻¹. For the same compound, the inhibition result in [2] was “Dose-Dependent Effect”; in series [6] it was “Tde”; in series [8], “Tde”; in [13], “Dose-Dependent Effect”. Besides, the inhibition result in series [4] and in series [11] was “Active” in each case. The IC50 in series [5] was determined as 5200 nM; in series [14], 4900 nM; in [16], 600 nM; in [28], 39.7 nM; in [31], 36.1 nM. In addition, the Activity in series [7] is on record as 60%; in series [12] it was “Non-Toxic”; in series [20], “Non-Toxic”; in series [21] it was 40%; in series [23], “Non-Toxic”. Also, the ΔTm stood at 9.3 °C in [9] and 4.5 °C in series [10]. For the same compound, the Ratio in series [26] amounted to 216 µM⁻¹ min⁻¹; in [30], 81.1 µM⁻¹ min⁻¹. In addition, the Ki worked out at 1600 nM in series [27] and 5400 nM in [29]. Further, the MIC in series [15] is > 128 µg/mL. The outcome in [17] and in [19] was inactive.
In the case of `O=C1NC(=O)C(=C/C=C/c2ccc(OCC(=O)c3ccc[nH]3)cc2)C(=O)N1`, the IC50 was 15300 nM in series [5] and 500 nM in series [16]. The MIC in [15] is > 128 µg/mL.
Take `O=C1NC(=O)C(=C/C=C/c2ccc(OCC(=O)c3ccco3)cc2)C(=O)N1`: the IC50 amounted to 24600 nM in [5] and 800 nM in series [16]. The MIC in series [15] was > 128 µg/mL.
